Key:
[1] = Plasma pharmacokinetics, each drug alone and in combination; conditions: selumetinib + dacarbazine arm
Text: When more than one maximum occurred, the reported value was assigned to the first occurrence.

[2] = cited from earlier work
[3] = Dose-limiting toxicity and maximum tolerated dose, phase I dose escalation; format: in vivo, human (patients with advanced solid tumors)
Text: Dose-limiting toxicities (DLTs) in the study were defined as those related to treatment and occurring within the first 28 days of therapy. Hematologic DLTs were defined as afebrile grade 4 neutropenia for >5 days, grade 4 neutropenia associated with fever, or grade 4 thrombocytopenia. Non-hematological DLTs were defined as any ≥ grade 3 adverse event (AE) for >7 days that could not be controlled to grade ≤2 with appropriate treatment.
In part B (dose expansion) of the study, an additional 12 evaluable patients received treatment at the combination MTDs.

Row | Structure (SMILES) | Pharmacokinetic parameters administered alone vs in combination [1] | Plasma concentration-time profiles administered alone vs in combination [1] | recommended dose for selumetinib monotherapy ([2]; monotherapy) | monotherapy MTD ([2]; selumetinib monotherapy) [mg BID] | AUC(0–8) ([1]; plasma, dosed in combination, selumetinib 75 mg (N = 15), geometric mean (% CV)) | MTD of selumetinib ([3]; in combination with dacarbazine 1000 mg/m^2 every 21 days) [mg BID] | MTD of selumetinib ([3]; in combination with docetaxel 75 mg/m^2 every 21 days) [mg BID] | MTD of selumetinib ([3]; plus docetaxel with ppG-CSF, defined in part A) [mg BID] | recommended phase II dose of selumetinib ([3]; plus docetaxel without ppG-CSF) [mg BID] | MTD of selumetinib ([3]; with docetaxel 75 mg/m^2 without ppG-CSF) [mg BID]
1 | CN(C)/N=N/c1[nH]cnc1C(N)=O [Dacarbazine] | similar | similar | – | – | – | – | – | – | – | –
2 | Cn1cnc2c(F)c(Nc3ccc(Br)cc3Cl)c(C(=O)NOCCO)cc21 [Selumetinib] | – | – | 75 mg twice daily (BID) | 75 | 4544 (45.42) ng•h/mL | 75 | 75 | 75 | 75 | 75

Reference: paper PMC5340007 (BMC Cancer, 2017)
